Measurements taken from ChEMBL document CHEMBL1129115, “The role of the C-4 side chain of kainate and dihydrokainate in EAA receptor and transporter selectivity” (Bioorg Med Chem Lett, 1996).

Legend:
Glutamate NMDA receptor [1] = assay: Compound was tested for the inhibition of [3H]L-Glutamate radioligand binding to NMDA receptor in synaptic plasma membrane prepared from rat forebrain; very weak inhibition; format: cell membranes, Brain/Plasma
Rattus norvegicus [2] = species on record: Rattus norvegicus; assay: Compound was tested for the inhibition of [3H]D-aspartate radioligand uptake into Synaptosomes in synaptic plasma membrane prepared from rat forebrain; format: functional
[3] = molecular target: Glutamate receptor ionotropic, kainate; assay: Compound was tested for the inhibition of [3H]kainate radioligand binding to Ionotropic glutamate receptor kainate in synaptic plasma membrane prepared from rat forebrain; format: cell membranes, Brain/Plasma
[4] = molecular target: T1, Glutamate receptor ionotropic, AMPA (Rattus norvegicus, UniProt P19490+P19491+P19492+P19493); assay: Compound was tested for the inhibition of [3H]AMPA radioligand binding to Ionotropic glutamate receptor AMPA in synaptic plasma membrane prepared from rat forebrain; very weak inhibition; format: cell membranes, Brain/Plasma
[5] = molecular target: T1, Glutamate receptor ionotropic, AMPA; assay: Compound was tested for the inhibition of [3H]AMPA radioligand binding to Ionotropic glutamate receptor AMPA in synaptic plasma membrane prepared from rat forebrain; format: cell membranes, Brain/Plasma
Rattus norvegicus [6] = species on record: Rattus norvegicus; assay: Compound was tested for the inhibition of [3H]D-aspartate radioligand uptake into Synaptosomes in synaptic plasma membrane prepared from rat forebrain; very weak inhibition; format: functional, Brain/Plasma
Glutamate NMDA receptor [7] = assay: Compound was tested for the inhibition of [3H]L-Glutamate radioligand binding to NMDA receptor in synaptic plasma membrane prepared from rat forebrain; format: cell membranes, Brain/Plasma

SMILES | Ki (Glutamate NMDA receptor [1]) [µM] | Ki (Rattus norvegicus [2]) [µM] | Ki [3] [µM] | Ki [4] [µM] | Ki [5] [µM] | Ki (Rattus norvegicus [6]) [µM] | Ki (Glutamate NMDA receptor [7]) [µM]
CC(C)[C@H]1CN[C@H](C(=O)O)[C@H]1CC(=O)O [DIHYDROKAINATE] | > 300 | 30 | 16 | > 500 | – | – | –
O=C(O)C[C@H]1CCN[C@@H]1C(=O)O [TRANS-CPPA] | – | – | 1.6 | – | 106 | > 250 | 0.5
